This passage reports IC50 results from patent US20240025883A1, “PYRIMIDIN-2-YL SULFONAMIDE DERIVATIVES” (Hoffmann-La Roche Inc., priority 2021, published 2024).

pIC50: −log10 of the molar value.

In the assay the target is human GPR17 short isoform (Homo sapiens (Human), UniProt Q13304). In words: GPR17 cAMP assay (hGPR17 cAMP, antagonist mode against EC80 of MDL29,951). To be noted: CHO-K1 cells stably expressing human GPR17 short isoform; EC80 of agonist MDL29,951; forskolin 15 μM. The assay is classed as cell-based. A digest of the protocol: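 CHO-K1 cells stably expressing untagged human GPR17 short isoform, 10,000/well in HBSS/10 mM HEPES/0.1% BSA pH 7.4. Compounds added with EC80 MDL29,951 and 0.5 mM IBMX, then 15 μM forskolin 5 min later, 30 min at room temperature; cAMP by TR-FRET, normalized to reference antagonist, sigmoidal fit.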
Sequence of human GPR17 short isoform (Q13304 29-367): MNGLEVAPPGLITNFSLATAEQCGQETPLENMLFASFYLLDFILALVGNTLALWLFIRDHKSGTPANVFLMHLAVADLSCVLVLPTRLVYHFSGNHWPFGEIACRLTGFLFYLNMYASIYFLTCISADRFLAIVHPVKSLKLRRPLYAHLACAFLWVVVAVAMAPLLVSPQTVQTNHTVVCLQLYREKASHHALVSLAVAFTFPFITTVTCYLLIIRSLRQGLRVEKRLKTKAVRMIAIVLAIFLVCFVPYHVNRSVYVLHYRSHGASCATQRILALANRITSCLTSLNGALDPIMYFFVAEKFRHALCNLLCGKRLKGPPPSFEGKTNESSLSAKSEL

The pIC50 is the negative decadic logarithm of the IC50, by convention in mol/L. Lower therefore signals a high IC50. `COc1nc(NS(=O)(=O)c2csc3nc(Br)ccc23)ncc1CCC(F)F` [Example 270, 6-bromo-N-[5-(3,3-difluoropropyl)-4-methoxy-pyrimidin-2-yl]thieno[2,3-b]pyridine-3-sulfonamide] had a pIC50 of 7.14.

Consider `COc1nc(NS(=O)(=O)c2csc3nc(Cl)ccc23)nc(OC)c1OC(F)F` [Example 271, 6-chloro-N-[5-(difluoromethoxy)-4,6-dimethoxy-pyrimidin-2-yl]thieno[2,3-b]pyridine-3-Sulfonamide], for which the pIC50 was 6.54.

`COc1nc(NS(=O)(=O)c2c[nH]c3cc(C4COC4)ccc23)ncc1CC(F)F` [Example 272, N-[5-(2,2-difluoroethyl)-4-methoxy-pyrimidin-2-yl]-6-(oxetan-3-yl)-1h-indole-3-sulfonamide] showed a negative-log IC50 (pIC50) of 5.93.

Molecule `COc1ccc2c(S(=O)(=O)Nc3nc(OC)c(C)c(OC)n3)c[nH]c2c1` [Example 273, N-(4,6-dimethoxy-5-methyl-pyrimidin-2-yl)-6-methoxy-1h-indole-3-sulfonamide] had a negative logarithm of the IC50 (pIC50) of 6.89.

As for `COc1nc(NS(=O)(=O)c2c[nH]c3cc(C(C)(C)O)ccc23)ncc1CC(F)F` [Example 274, N-[5-(2,2-difluoroethyl)-4-methoxy-pyrimidin-2-yl]-6-(1-hydroxy-1-methyl-ethyl)-1h-indole-3-sulfonamide], the pIC50 was 6.63.

Molecule `COc1nc(NS(=O)(=O)c2c[nH]c3cc(Cl)ccc23)nc(OC)c1OC(F)(F)CO` [Example 275, 6-chloro-N-[5-(1,1-difluoro-2-hydroxy-ethoxy)-4,6-dimethoxy-pyrimidin-2-yl]-1H-indole-3-sulfonamide] had a pIC50 of 6.89.

Molecule `COc1nc(NS(=O)(=O)c2c[nH]c3c([S+](C)[O-])c(Cl)ccc23)ncc1CC(F)F` (stereo not shown) [Example 276, 6-chloro-N-[5-(2,2-difluoroethyl)-4-methoxy-pyrimidin-2-yl]-7-methylsulfinyl-1H-indole-3-sulfonamide] showed a pIC50 of 6.87.

On to `COc1nc(NS(=O)(=O)c2c[nH]c3c(S(C)(=O)=O)c(Cl)ccc23)ncc1CC(F)F` [Example 277, 6-chloro-N-[5-(2,2-difluoroethyl)-4-methoxy-pyrimidin-2-yl]-7-mesyl-1h-indole-3-sulfonamide], for which the pIC50 is 6.14.

In turn, `COc1nc(NS(=O)(=O)c2c[nH]c3c([S+](C)[O-])c(Cl)ccc23)nc(OC)c1OCCF` (stereo not shown) [Example 278, 6-chloro-N-[5-(2-fluoroethoxy)-4,6-dimethoxy-pyrimidin-2-yl]-7-methylsulfinyl-1h-indole-3-sulfonamide] had a pIC50 of 6.64.

Molecule `COc1nc(NS(=O)(=O)c2c[nH]c3c([S+](C)[O-])c(Cl)ccc23)nc(OC)c1CC(F)F` (stereo not shown) [Example 279, 6-chloro-N-[5-(2,2-difluoroethyl)-4,6-dimethoxy-pyrimidin-2-yl]-7-methylsulfinyl-1H-indole-3-Sulfonamide] gave a pIC50 of 7.16.

As for `COc1nc(NS(=O)(=O)c2c[nH]c3c(C#N)c(Cl)ccc23)ncc1OCCF` [Example 280, 6-Chloro-7-Cyano-N-[5-(2-Fluoroethoxy)-4-Methoxy-Pyrimidin-2-Yl]-1H-Indole-3-Sulfonamide], the pIC50 was 7.21.

`COc1nc(NS(=O)(=O)c2c[nH]c3cc(Cl)ccc23)nc(OC)c1CCS(C)(=O)=O` [Example 281, 6-Chloro-N-[4,6-Dimethoxy-5-(2-Methylsulfonylethyl)Pyrimidin-2-Yl]-1H-Indole-3-Sulfonamide] had a negative logarithm of the IC50 (pIC50) of 6.63.

Consider `COc1nc(NS(=O)(=O)c2c[nH]c3c2ccc2sncc23)ncc1CC(F)F` [Example 282, N-[5-(2,2-Difluoroethyl)-4-Methoxy-Pyrimidin-2-Yl]-1H-Pyrrolo[2,3-e][1,2]Benzothiazole-3-Sulfonamide], for which the pIC50 is 6.96.

Consider `COc1nc(NS(=O)(=O)c2c[nH]c3c(Br)c(Cl)ccc23)nc(OC)c1CC(F)F` [Example 283, 7-Bromo-6-Chloro-N-[5-(2,2-Difluoroethyl)-4,6-Dimethoxy-Pyrimidin-2-Yl]-1H-Indole-3-Sulfonamide], for which the pIC50 is 7.89.

The molecule `COc1nc(NS(=O)(=O)c2c[nH]c3nc(C)ccc23)nc(OC)c1OCC#N` [Example 284, N-[5-(Cyanomethoxy)-4,6-Dimethoxy-Pyrimidin-2-Yl]-6-Methyl-1H-Pyrrolo[2,3-b]Pyridine-3-Sulfonamide] had a negative-log IC50 (pIC50) of 6.56.

`COc1nc(NS(=O)(=O)c2c[nH]c3nc(C)ccc23)nc(OC)c1OCC(F)F` [Example 285, N-[5-(2,2-Difluoroethoxy)-4,6-Dimethoxy-Pyrimidin-2-Yl]-6-Methyl-1H-Pyrrolo[2,3-b]Pyridine-3-Sulfonamide] showed a pIC50 of 6.93.

`COc1nc(NS(=O)(=O)c2c[nH]c3nc(C)ccc23)nc(OC)c1OC(F)F` [Example 286, N-[5-(Difluoromethoxy)-4,6-Dimethoxy-Pyrimidin-2-Yl]-6-Methyl-1H-Pyrrolo[2,3-b]Pyridine-3-Sulfonamide] showed a pIC50 of 6.69.

`COc1nc(NS(=O)(=O)c2c[nH]c3nc(C(F)F)ccc23)nc(OC)c1CC(F)CF` (stereo not shown) [Example 287, 6-(Difluoromethyl)-N-[5-(2,3-Difluoropropyl)-4,6-Dimethoxy-Pyrimidin-2-Yl]-1H-Pyrrolo[2,3-b]Pyridine-3-Sulfonamide]: the pIC50 was 6.94.

`COc1nc(NS(=O)(=O)c2c[nH]c3nc(Br)ccc23)nc(OC)c1CC(F)CF` (stereo not shown) [Example 288, 6-Bromo-N-[5-(2,3-Difluoropropyl)-4,6-Dimethoxy-Pyrimidin-2-Yl]-1H-Pyrrolo[2,3-b]Pyridine-3-Sulfonamide] had a negative logarithm of the IC50 (pIC50) of 7.24.

`COc1nc(NS(=O)(=O)c2c[nH]c3nc(Cl)ccc23)nc(OC)c1CC(F)CF` (stereo not shown) [Example 289, 6-Chloro-N-[5-(2,3-Difluoropropyl)-4,6-Dimethoxy-Pyrimidin-2-Yl]-1H-Pyrrolo[2,3-b]Pyridine-3-Sulfonamide] showed a pIC50 of 7.16.

The molecule `COc1nc(NS(=O)(=O)c2c[nH]c3c2ccc2scnc23)ncc1CC(F)F` [Example 290, N-[5-(2,2-Difluoroethyl)-4-Methoxy-Pyrimidin-2-Yl]-8H-Pyrrolo[2,3-e][1.3]Benzothiazole-6-Sulfonamide] gave a negative logarithm of the IC50 (pIC50) of 6.39.

`COC(=O)c1c(C)ccc2c(S(=O)(=O)Nc3ncc(CC(F)F)c(OC)n3)c[nH]c12` [Example 291, 3-[[5-(2,2-Difluoroethyl)-4-Methoxy-Pyrimidin-2-Yl]Sulfamoyl]-6-Methyl-1H-Indole-7-Carboxylic Acid Methyl Ester]: the pIC50 was 6.07.

Molecule `COc1nc(NS(=O)(=O)c2c[nH]c3c(CO)c(C)ccc23)ncc1CC(F)F` [Example 292, N-[5-(2,2-Difluoroethyl)-4-Methoxy-Pyrimidin-2-Yl]-6-Methyl-7-Methylol-1H-Indole-3-Sulfonamide] gave a pIC50 of 6.36.

Molecule `COc1nc(NS(=O)(=O)c2c[nH]c3c4c(ccc23)CCN(C)C4=O)ncc1OCCF` [Example 293, N-[5-(2-Fluoroethoxy)-4-Methoxy-Pyrimidin-2-Yl]-9-Keto-8-Methyl-6,7-Dihydro-1H-Pyrrol[3,2-h]Isoquinoline-3-Sulfonamide] had a negative logarithm of the IC50 (pIC50) of 6.62.

Molecule `COc1nc(NS(=O)(=O)c2c[nH]c3c(OCC#N)c(Cl)ccc23)nc(OC)c1CC(F)F` [Example 294, 6-Chloro-7-(Cyanomethoxy)-N-[5-(2,2-Difluoroethyl)-4,6-Dimethoxy-Pyrimidin-2-Yl]-1H-Indole-3-Sulfonamide] showed a negative-log IC50 (pIC50) of 7.62.
